Common to all, as to format: biochemical
One experiment has as its target T1, PI3Kβ (Homo sapiens, UniProt P42338).
T1 construct: purchased Millipore Ltd (Billerica, Mass.)
In words: In vitro determination of the PI3K enzyme inhibitory activity in the cell free assay (ADP-Glo Kinase Assay), PI3Kβ. The following applies: ATP 100 μM, read-out: PI3K beta inhibition. The essentials: (§1)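 IC50 values came from four-parameter logistic fitting of ADP-Glo luminescence after 60 min kinase reactions at room temperature. ATP (final) was set per isoform: α 50 μM, β 100 μM, γ 30 μM, δ 80 μM. Substrates were phosphatidylinositol and phosphatidylserine (50 μM in 2× Tris pH 7.5 buffer), with human recombinant enzymes.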
On the technique in general: ADP-Glo first removes unused ATP, then detects ADP through luciferase.

For the next experiment, the target named is T2, PI3Kδ (Homo sapiens, UniProt O00329).
T2 construct: purchased Millipore Ltd (Billerica, Mass.)
T2 sequence (O00329 whole entry): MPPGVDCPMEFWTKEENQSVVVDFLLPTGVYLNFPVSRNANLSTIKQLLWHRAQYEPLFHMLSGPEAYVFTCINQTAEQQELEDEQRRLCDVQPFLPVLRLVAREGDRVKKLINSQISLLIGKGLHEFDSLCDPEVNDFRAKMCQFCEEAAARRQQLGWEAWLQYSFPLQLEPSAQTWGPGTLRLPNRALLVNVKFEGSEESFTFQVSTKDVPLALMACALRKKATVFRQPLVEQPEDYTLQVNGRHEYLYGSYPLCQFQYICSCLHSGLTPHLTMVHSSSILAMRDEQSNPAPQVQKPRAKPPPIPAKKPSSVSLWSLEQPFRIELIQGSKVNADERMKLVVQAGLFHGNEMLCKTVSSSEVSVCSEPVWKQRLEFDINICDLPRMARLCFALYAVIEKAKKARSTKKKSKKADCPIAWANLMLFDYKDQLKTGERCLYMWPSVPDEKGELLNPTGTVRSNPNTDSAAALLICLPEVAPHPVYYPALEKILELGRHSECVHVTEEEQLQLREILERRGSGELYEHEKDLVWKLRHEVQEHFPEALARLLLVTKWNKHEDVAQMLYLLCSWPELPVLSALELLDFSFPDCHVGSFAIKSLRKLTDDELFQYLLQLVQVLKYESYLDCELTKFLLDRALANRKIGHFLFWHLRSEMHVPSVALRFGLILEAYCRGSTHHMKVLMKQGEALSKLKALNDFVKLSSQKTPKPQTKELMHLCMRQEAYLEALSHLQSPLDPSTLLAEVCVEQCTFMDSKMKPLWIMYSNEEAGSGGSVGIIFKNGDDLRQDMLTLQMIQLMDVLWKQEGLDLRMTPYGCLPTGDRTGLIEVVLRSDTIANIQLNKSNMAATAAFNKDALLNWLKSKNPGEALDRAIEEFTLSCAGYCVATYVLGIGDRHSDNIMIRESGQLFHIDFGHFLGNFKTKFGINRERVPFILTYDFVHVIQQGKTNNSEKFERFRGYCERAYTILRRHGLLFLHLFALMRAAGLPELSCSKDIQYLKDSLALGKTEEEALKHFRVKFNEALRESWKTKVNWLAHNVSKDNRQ
T2 sequence (P27986 whole entry partner): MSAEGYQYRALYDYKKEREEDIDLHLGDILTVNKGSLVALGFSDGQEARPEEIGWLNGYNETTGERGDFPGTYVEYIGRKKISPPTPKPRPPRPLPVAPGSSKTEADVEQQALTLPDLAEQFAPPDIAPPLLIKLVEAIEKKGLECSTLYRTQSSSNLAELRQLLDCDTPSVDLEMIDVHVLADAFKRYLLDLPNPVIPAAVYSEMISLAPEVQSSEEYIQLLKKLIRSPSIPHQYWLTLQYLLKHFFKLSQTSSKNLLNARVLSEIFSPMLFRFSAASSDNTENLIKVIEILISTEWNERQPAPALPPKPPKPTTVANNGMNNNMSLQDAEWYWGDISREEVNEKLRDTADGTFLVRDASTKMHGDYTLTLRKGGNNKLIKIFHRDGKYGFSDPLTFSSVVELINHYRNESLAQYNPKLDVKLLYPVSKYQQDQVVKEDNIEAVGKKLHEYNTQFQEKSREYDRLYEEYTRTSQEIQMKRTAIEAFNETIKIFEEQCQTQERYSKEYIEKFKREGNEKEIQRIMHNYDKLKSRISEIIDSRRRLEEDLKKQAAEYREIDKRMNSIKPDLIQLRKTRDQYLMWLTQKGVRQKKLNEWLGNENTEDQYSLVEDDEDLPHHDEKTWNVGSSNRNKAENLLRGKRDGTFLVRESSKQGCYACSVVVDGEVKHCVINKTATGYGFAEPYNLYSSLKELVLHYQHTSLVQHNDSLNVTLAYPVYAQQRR
In words: In vitro determination of the PI3K enzyme inhibitory activity in the cell free assay (ADP-Glo Kinase Assay), PI3Kδ. The following applies: ATP 80 μM, read-out: PI3K delta inhibition. The essentials:
as §1

The target of the next experiment is T3, PI3Kα (Homo sapiens, UniProt P42336).
T3 construct: purchased Millipore Ltd (Billerica, Mass.)
T3 sequence (P42336 whole entry): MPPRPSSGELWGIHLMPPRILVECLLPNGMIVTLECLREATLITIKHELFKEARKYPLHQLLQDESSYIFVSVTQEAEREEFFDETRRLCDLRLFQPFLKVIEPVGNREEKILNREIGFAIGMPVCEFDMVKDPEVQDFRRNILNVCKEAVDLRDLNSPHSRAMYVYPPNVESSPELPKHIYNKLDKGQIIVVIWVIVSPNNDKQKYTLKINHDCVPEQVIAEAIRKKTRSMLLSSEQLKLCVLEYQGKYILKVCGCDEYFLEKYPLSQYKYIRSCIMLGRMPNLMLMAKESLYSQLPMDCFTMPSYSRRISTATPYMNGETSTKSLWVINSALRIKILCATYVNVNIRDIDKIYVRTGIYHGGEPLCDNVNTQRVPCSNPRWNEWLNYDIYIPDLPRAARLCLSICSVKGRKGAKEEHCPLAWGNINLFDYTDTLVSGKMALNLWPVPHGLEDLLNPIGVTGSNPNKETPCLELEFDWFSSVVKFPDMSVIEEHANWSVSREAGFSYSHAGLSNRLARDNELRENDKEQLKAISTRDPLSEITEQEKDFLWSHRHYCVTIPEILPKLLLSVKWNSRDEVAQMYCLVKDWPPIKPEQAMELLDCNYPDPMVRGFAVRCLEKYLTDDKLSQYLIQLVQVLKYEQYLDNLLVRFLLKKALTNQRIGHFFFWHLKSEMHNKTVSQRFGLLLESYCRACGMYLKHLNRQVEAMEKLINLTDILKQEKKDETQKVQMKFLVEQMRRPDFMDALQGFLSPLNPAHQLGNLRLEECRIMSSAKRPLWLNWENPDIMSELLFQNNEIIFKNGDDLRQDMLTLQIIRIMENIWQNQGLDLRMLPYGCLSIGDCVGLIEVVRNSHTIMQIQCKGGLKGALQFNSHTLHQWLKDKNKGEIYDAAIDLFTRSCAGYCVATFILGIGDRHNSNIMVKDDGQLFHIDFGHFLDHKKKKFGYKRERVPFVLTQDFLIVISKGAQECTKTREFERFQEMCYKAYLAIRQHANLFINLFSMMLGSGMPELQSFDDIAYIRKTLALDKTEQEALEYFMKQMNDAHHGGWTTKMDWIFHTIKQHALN
T3 sequence (P27986 whole entry partner): as the sequence (P27986 whole entry partner) above
In words: In vitro determination of the PI3K enzyme inhibitory activity in the cell free assay (ADP-Glo Kinase Assay), PI3Kα. The following applies: ATP 50 μM, read-out: PI3K alpha inhibition. In a few lines: as §1

The next experiment has as its target T4, PI3Kγ (Homo sapiens, UniProt P48736).
T4 construct: purchased Millipore Ltd (Billerica, Mass.)
In words: In vitro determination of the PI3K enzyme inhibitory activity in the cell free assay (ADP-Glo Kinase Assay), PI3Kγ. The following applies: ATP 30 μM, read-out: PI3K gamma inhibition. The essentials:
as §1

SMILES strings stand for the structures.

T4 sequence (P48736 whole entry): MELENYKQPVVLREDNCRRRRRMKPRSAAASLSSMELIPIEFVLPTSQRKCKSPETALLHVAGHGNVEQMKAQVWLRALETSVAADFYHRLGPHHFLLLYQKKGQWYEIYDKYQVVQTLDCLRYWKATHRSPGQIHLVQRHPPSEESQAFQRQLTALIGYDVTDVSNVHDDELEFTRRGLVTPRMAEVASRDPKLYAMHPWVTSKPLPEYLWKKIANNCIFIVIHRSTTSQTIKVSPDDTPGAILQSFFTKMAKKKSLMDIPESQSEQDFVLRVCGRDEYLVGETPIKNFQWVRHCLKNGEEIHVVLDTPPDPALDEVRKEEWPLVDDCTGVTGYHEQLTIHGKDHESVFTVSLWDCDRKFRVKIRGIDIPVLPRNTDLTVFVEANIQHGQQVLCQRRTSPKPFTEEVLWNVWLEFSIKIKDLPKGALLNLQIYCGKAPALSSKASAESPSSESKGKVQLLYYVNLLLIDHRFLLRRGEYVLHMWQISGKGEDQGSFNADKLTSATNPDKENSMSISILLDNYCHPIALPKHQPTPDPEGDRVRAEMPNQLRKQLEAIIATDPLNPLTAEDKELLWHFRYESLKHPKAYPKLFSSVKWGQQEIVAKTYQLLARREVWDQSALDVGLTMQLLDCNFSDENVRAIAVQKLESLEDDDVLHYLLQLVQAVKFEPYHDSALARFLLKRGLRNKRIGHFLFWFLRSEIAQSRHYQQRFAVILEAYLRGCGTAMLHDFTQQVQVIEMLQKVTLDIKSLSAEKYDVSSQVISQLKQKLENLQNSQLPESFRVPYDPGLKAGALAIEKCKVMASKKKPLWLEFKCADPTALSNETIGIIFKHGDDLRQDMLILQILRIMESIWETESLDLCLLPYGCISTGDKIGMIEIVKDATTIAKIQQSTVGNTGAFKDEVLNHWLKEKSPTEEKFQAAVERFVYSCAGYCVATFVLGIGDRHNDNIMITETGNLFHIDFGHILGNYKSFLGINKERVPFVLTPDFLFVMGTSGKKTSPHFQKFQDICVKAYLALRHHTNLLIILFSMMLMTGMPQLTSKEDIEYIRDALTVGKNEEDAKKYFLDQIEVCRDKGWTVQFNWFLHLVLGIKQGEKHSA
T1 sequence (P42338 whole entry): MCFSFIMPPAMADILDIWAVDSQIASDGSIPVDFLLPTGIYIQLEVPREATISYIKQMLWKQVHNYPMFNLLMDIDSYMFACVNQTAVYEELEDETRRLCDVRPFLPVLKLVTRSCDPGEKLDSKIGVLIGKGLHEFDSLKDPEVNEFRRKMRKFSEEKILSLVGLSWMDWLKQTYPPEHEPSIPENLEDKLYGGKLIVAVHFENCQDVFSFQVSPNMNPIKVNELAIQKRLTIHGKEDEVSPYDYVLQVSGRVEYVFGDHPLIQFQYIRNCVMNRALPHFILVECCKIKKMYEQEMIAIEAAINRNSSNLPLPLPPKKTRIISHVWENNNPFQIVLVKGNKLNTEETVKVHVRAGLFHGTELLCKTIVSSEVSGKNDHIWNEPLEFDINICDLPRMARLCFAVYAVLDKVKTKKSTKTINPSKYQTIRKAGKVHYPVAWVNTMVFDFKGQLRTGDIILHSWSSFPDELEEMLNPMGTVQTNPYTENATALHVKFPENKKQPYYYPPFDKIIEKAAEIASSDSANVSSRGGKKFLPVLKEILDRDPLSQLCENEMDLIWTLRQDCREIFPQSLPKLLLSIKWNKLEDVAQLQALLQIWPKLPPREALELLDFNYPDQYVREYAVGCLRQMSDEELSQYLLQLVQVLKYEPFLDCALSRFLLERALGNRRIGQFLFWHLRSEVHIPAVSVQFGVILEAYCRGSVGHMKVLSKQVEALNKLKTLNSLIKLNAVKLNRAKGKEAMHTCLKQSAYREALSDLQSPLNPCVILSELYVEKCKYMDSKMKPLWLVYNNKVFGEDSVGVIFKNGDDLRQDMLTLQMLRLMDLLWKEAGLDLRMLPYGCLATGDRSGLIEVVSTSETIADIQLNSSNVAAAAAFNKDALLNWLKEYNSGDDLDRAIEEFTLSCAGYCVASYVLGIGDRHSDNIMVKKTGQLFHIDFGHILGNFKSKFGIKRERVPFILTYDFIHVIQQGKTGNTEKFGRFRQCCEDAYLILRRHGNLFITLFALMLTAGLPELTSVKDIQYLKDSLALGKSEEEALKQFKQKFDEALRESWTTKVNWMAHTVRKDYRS
T1 sequence (P27986 whole entry partner): as the sequence (P27986 whole entry partner) above

As for `CC(c1cc2cccnn2c1-c1cccc(CN(C)C)c1)n1nc(-c2cc(O)cc(F)c2)c2c(N)ncnc21` (stereo not shown) [Example 128, 3-{4-amino-1-[1-(7-{3-[(dimethylamino)-methyl]phenyl}pyrrolo[1,2-b]pyridazin-6-yl)-ethyl]-1H-pyrazolo[3,4-d]pyrimidin-3-yl}-5-fluorophenol], the IC50 at PI3Kβ was 10 to 1000 nM; on PI3Kδ, 10 to 1000 nM; on PI3Kα, more than 1000 nM; on PI3Kγ, more than 1000 nM.
`CC(c1cc2ccccn2c1-c1cscn1)n1nc(-c2cc(O)cc(F)c2)c2c(N)ncnc21` (stereo not shown) [Example 129, 3-(4-amino-1-{1-[3-(1,3-thiazol-4-yl)indolizin-2-yl]-ethyl}-1H-pyrazolo[3,4-d]pyrimidin-3-yl)-5-fluorophenol]: the IC50 at PI3Kβ, on PI3Kδ, on PI3Kα and on PI3Kγ was 10 to 1000 nM throughout.
In the case of `CC(c1cc2ccccn2c1-c1csc(CN2CCOCC2)n1)n1nc(-c2cc(O)cc(F)c2)c2c(N)ncnc21` (stereo not shown) [Example 130, 3-[4-amino-1-(1-{3-[2-(morpholin-4-ylmethyl)-1,3-thiazol-4-yl]indolizin-2-yl}ethyl)-1H-pyrazolo-[3,4-d]pyrimidin-3-yl]-5-fluorophenol], the IC50 on PI3Kβ was 10 to 1000 nM; at PI3Kδ it was less than 10 nM; on PI3Kα, more than 1000 nM; at PI3Kγ, 10 to 1000 nM.
With `CC(c1cc2ccccn2c1C#CCN(C)C)n1nc(-c2cc(O)cc(F)c2)c2c(N)ncnc21` (stereo not shown) [Example 131, 3-[4-amino-1-(1-{3-[3-(dimethylamino)prop-1-yn-1-yl]indolizin-2-yl}ethyl)-1H-pyrazolo[3,4-d]-pyrimidin-3-yl]-5-fluorophenol], the IC50 on PI3Kβ, on PI3Kδ, on PI3Kα and at PI3Kγ was 10 to 1000 nM each time.
As to `CC(c1cc2ccccn2c1N1CCN(C)CC1=O)n1nc(-c2cc(O)cc(F)c2)c2c(N)ncnc21` (stereo not shown) [Example 132, 1-(2-{1-[4-amino-3-(3-fluoro-5-hydroxyphenyl)-1H-pyrazolo[3,4-d]pyrimidin-1-yl]-ethyl}indolizin-3-yl)-4-methylpiperazin-2-one], the IC50 at PI3Kβ is 10 to 1000 nM; on PI3Kδ, less than 10 nM; on PI3Kα, 10 to 1000 nM; at PI3Kγ, 10 to 1000 nM.
As for `CC(c1cc2ccccn2c1-c1ccn(CCN(C)C)c(=O)c1)n1nc(-c2cc(O)cc(F)c2)c2c(N)ncnc21` (stereo not shown) [Example 133, 4-(2-{1-[4-amino-3-(3-fluoro-5-hydroxyphenyl)-1H-pyrazolo[3,4-d]pyrimidin-1-yl]-ethyl}indolizin-3-yl)-1-[2-(dimethylamino)-ethyl]-1,2-dihydropyridin-2-one], the IC50 on PI3Kβ is 10 to 1000 nM; at PI3Kδ, less than 10 nM; on PI3Kα it was more than 1000 nM; at PI3Kγ it was 10 to 1000 nM.
Consider `CC(c1cc2ccccn2c1-c1ccc(=O)n(CCN2CCCC2)n1)n1nc(-c2cc(O)cc(F)c2)c2c(N)ncnc21` (stereo not shown) [Example 134, 6-(2-{1-[4-amino-3-(3-fluoro-5-hydroxyphenyl)-1H-pyrazolo[3,4-d]pyrimidin-1-yl]-ethyl}indolizin-3-yl)-2-[2-(pyrrolidin-1-yl)-ethyl]-2,3-dihydropyridazin-3-one], for which the IC50 at PI3Kβ is 10 to 1000 nM; at PI3Kδ, less than 10 nM; at PI3Kα, more than 1000 nM; at PI3Kγ it was more than 1000 nM.
On to `CC(c1cc2ccccn2c1-c1ccc(=O)n(CCN2CCN(C)CC2)n1)n1nc(-c2cc(O)cc(F)c2)c2c(N)ncnc21` (stereo not shown) [Example 135, 6-(2-{1-[4-amino-3-(3-fluoro-5-hydroxyphenyl)-1H-pyrazolo[3,4-d]pyrimidin-1-yl]-ethyl}indolizin-3-yl)-2-[2-(4-methylpiperazin-1-yl)ethyl]-2,3-dihydropyridazin-3-one], for which the IC50 at PI3Kβ is 10 to 1000 nM; at PI3Kδ, 10 to 1000 nM; on PI3Kα, more than 1000 nM; on PI3Kγ, more than 1000 nM.
In the case of `CC(c1cc2ccccn2c1-c1ccc(=O)n(CCN2CCOCC2)n1)n1nc(-c2cc(O)cc(F)c2)c2c(N)ncnc21` (stereo not shown) [Example 136, 6-(2-{1-[4-amino-3-(3-fluoro-5-hydroxyphenyl)-1H-pyrazolo[3,4-d]pyrimidin-1-yl]-ethyl}indolizin-3-yl)-2-[2-(morpholin-4-yl)ethyl]-2,3-dihydropyridazin-3-one], the IC50 was 10 to 1000 nM at PI3Kβ, 10 to 1000 nM at PI3Kδ, 10 to 1000 nM on PI3Kα and more than 1000 nM at PI3Kγ.
Regarding `CC(c1cc2ccccn2c1-c1ccc(OCCN2CCN(C)CC2)nn1)n1nc(-c2cc(O)cc(F)c2)c2c(N)ncnc21` (stereo not shown) [Example 137, 3-{4-amino-1-[1-(3-{6-[2-(4-methylpiperazin-1-yl)ethoxy]pyridazin-3-yl}indolizin-2-yl)-ethyl]-1H-pyrazolo[3,4-d]pyrimidin-3-yl}-5-fluorophenol], the IC50 at PI3Kβ is 10 to 1000 nM; on PI3Kδ it was less than 10 nM; on PI3Kα, more than 1000 nM; on PI3Kγ, more than 1000 nM.
Take `CC(c1cc2ccccn2c1-c1ccc(OCCN(C)C)nn1)n1nc(-c2cc(O)cc(F)c2)c2c(N)ncnc21` (stereo not shown) [Example 138, 3-{4-amino-1-[1-(3-{6-[2-(dimethylamino)-ethoxy]pyridazin-3-yl}indolizin-2-yl)-ethyl]-1H-pyrazolo[3,4-d]pyrimidin-3-yl}-5-fluorophenol]: the IC50 at PI3Kβ was 10 to 1000 nM; at PI3Kδ, less than 10 nM; at PI3Kα it was 10 to 1000 nM; on PI3Kγ, 10 to 1000 nM.
Take `CC(c1cc2ccccn2c1-c1ccc(OC2CCN(C)CC2)nn1)n1nc(-c2cc(O)cc(F)c2)c2c(N)ncnc21` (stereo not shown) [Example 139, 3-{4-amino-1-[1-(3-{6-[(1-methylpiperidin-4-yl)oxy]pyridazin-3-yl}indolizin-2-yl)ethyl]-1H-pyrazolo-[3,4-d]pyrimidin-3-yl}-5-fluorophenol]: the IC50 at PI3Kβ was 10 to 1000 nM; on PI3Kδ, 10 to 1000 nM; on PI3Kα it was more than 1000 nM; on PI3Kγ, more than 1000 nM.
Consider `CC(c1cc2ccccn2c1-c1ccc(OCCC2CCN(C)CC2)nn1)n1nc(-c2cc(O)cc(F)c2)c2c(N)ncnc21` (stereo not shown) [Example 140, 3-{4-amino-1-[1-(3-{6-[2-(1-methylpiperidin-4-yl)ethoxy]pyridazin-3-yl}indolizin-2-yl)-ethyl]-1H-pyrazolo[3,4-d]pyrimidin-3-yl}-5-fluorophenol], for which the IC50 on PI3Kβ is 10 to 1000 nM; on PI3Kδ, 10 to 1000 nM; at PI3Kα, more than 1000 nM; at PI3Kγ it was more than 1000 nM.
For `CC(c1cc2ccccn2c1CN1CCOCC1)n1nc(-c2cc(O)cc(F)c2)c2c(N)ncnc21` (stereo not shown) [Example 141, 3-(4-amino-1-{1-[3-(morpholin-4-ylmethyl)indolizin-2-yl]ethyl}-1H-pyrazolo[3,4-d]-pyrimidin-3-yl)-5-fluorophenol], the IC50 at PI3Kβ was 10 to 1000 nM; at PI3Kδ it was less than 10 nM; on PI3Kα it was 10 to 1000 nM; at PI3Kγ, 10 to 1000 nM.
In the case of `CC(c1cc2ccccn2c1CN1CCC2(CCCN(C)C2)CC1)n1nc(-c2cc(O)cc(F)c2)c2c(N)ncnc21` (stereo not shown) [Example 142, 3-(4-amino-1-{1-[3-({2-methyl-2,9-diazaspiro[5.5]-undecan-9-yl}methyl)indolizin-2-yl]ethyl}-1H-pyrazolo[3,4-d]-pyrimidin-3-yl)-5-fluorophenol], the IC50 on PI3Kβ is more than 1000 nM; at PI3Kδ, 10 to 1000 nM; on PI3Kα, more than 1000 nM; at PI3Kγ it was 10 to 1000 nM.
`CC(c1cc2ccccn2c1CN1CCC2(CCN(C)CC2)CC1)n1nc(-c2cc(O)cc(F)c2)c2c(N)ncnc21` (stereo not shown) [Example 143, 3-(4-amino-1-{1-[3-({9-methyl-3,9-diazaspiro[5.5]undecan-3-yl}methyl)indolizin-2-yl]ethyl}-1H-pyrazolo[3,4-d]pyrimidin-3-yl)-5-fluorophenol]: the IC50 is 10 to 1000 nM on PI3Kβ, less than 10 nM on PI3Kδ, 10 to 1000 nM on PI3Kα and 10 to 1000 nM at PI3Kγ.
On to `CC(c1cc2ccccn2c1CN1CC2(CCN(C)CC2)C1)n1nc(-c2cc(O)cc(F)c2)c2c(N)ncnc21` (stereo not shown) [Example 144, 3-(4-amino-1-{1-[3-({7-methyl-2,7-diazaspiro[3.5]nonan-2-yl}methyl)indolizin-2-yl]ethyl}-1H-pyrazolo[3,4-d]pyrimidin-3-yl)-5-fluorophenol], for which the IC50 on PI3Kβ, on PI3Kδ, at PI3Kα and on PI3Kγ was 10 to 1000 nM throughout.
For the molecule `CC(c1cc2ccccn2c1CN1C[C@H]2CN(C)C[C@H]2C1)n1nc(-c2cc(O)cc(F)c2)c2c(N)ncnc21` (stereo partly drawn) [Example 145, 3-{1-[1-(3-{[(3aR,6aS)-5-methyl-octahydropyrrolo[3,4-c]pyrrol-2-yl]methyl}indolizin-2-yl)ethyl]-4-amino-1H-pyrazolo[3,4-d]pyrimidin-3-yl}-5-fluorophenol], the IC50 on PI3Kβ, at PI3Kδ, at PI3Kα and on PI3Kγ was 10 to 1000 nM in each case.
Turning to `CC(c1cc2ccccn2c1-c1ccn(CCN(C)C)n1)n1nc(-c2cc(O)cc(F)c2)c2c(N)ncnc21` (stereo not shown) [Example 147, 3-{4-amino-1-[1-(3-{1-[2-(dimethylamino)-ethyl]-1H-pyrazol-3-yl}indolizin-2-yl)-ethyl]-1H-pyrazolo[3,4-d]pyrimidin-3-yl}-5-fluorophenol], the IC50 on PI3Kβ was 10 to 1000 nM; at PI3Kδ, less than 10 nM; on PI3Kα, 10 to 1000 nM; on PI3Kγ, more than 1000 nM.
